From patent US8022055B2, “Betulinic acid derivatives” (Dabur Pharma Limited, priority 2005, dated 2011)

Key:
NIH 3T3 cells = assay: NIH3T3 cytotoxicity test (72 h MTT assay); type: cell-based; details: NIH3T3, 72 hours
Experimental: The cytotoxic effect of chemicals upon NIH 3T3 cells in culture is measured by cell metabolism determination using the previously described MIT assay. Healthy NIH 3T3 cells (an established cell-line), when maintained in culture continuously divide and multiply over time. The basis of this test is that a cytotoxic chemical (regardless of site or mechanism of action) will interfere with this process and, thus, result in a reduction of the growth rate as reflected by cell number. The degree of inhibition of growth, related to the concentration of the test compound, provides an indication of toxicity.
The NIH 3T3 cells are maintained in culture and exposed to test compounds over a range of concentrations and the number of viable cells determined after 72 hours exposure by MIT assay. The number of cells in the presence of test chemicals are compared to that observed in control cultures and the percent inhibition of growth calculated. The IC50 concentration (i.e. the concentration producing 50% inhibition of growth) is determined and expressed as μg/ml. A ratio of IC50 of NIH 3T3 cells to tumor cells is an indicator of predicted toxicity of the molecule and is represented as “Safety Index”. The higher the value, the better is the predicted safety of the molecule.

PA1 = assay: three day MTT cytotoxicity assay, PA1; type: cell-based, human; details: for IC50 for cell lines PA1: PA1, 72 hours
Experimental: (§1) Briefly, a three day MTT cytotoxicity assay was performed, which is based on the principle of uptake of MTT (3-(4,5-dimethylthiazol-2-yl)-2,5-diphenyl tetrazolium bromide), a tetrazolium salt, by the metabolically active cells where it is metabolized by active mitochondria into a blue colored formazan product that is read spectrophotometrically. MIT was dissolved in phosphate buffered saline with a pH of 7.4 to obtain an MIT concentration of 5 mg/ml; the resulting mixture was filtered through a 0.22-micron filter to sterilize and remove a small amount of insoluble residue. For each type of tumor cell, 10,000 to 15,000 cells were seeded in a 96-well culture plate and incubated with the individual betulinic acid derivatives in a CO2 incubator for a total of 72 hours. Control cells not treated with the betulinic acid derivatives were similarly incubated. The assay was terminated by adding 100 μg (20 μl) of MIT to each well then incubating for additional one hour, and finally adding 50 μl of 10% SDS-0.01N HCl to each well to lyse the cells and dissolve formazan. After incubating for one hour, the plate was read spectrophotometrically at 540 nm and the percentage of cytotoxicity calculated using the following formula: Cytotoxicity percentage=100×[1−(X/R1)], where X=(absorbance of treated sample at 540 nm)−(absorbance of blank at 540 nm) R1=absorbance of control sample at 540 nm. The IC50 Values of the cytotoxicity defined as the concentration at which 50% of the cells are killed in vitro was calculated for each cell line treated with each of the betulinic acid derivatives.

DU145 = assay: three day MTT cytotoxicity assay, DU145; type: cell-based, human; details: for IC50 for cell lines DU145: DU145, 72 hours
Experimental: (§2) A number of compounds listed in Table-3 were tested for cytotoxicity against prostate, lung, laryngeal, pancreas, breast, colon and ovarian cancer, leukemia and lymphoma, human tumor cell lines. Briefly, a three day MTT cytotoxicity assay was performed, which is based on the principle of uptake of MTT (3-(4,5-dimethylthiazol-2-yl)-2,5-diphenyl tetrazolium bromide), a tetrazolium salt, by the metabolically active cells where it is metabolized by active mitochondria into a blue colored formazan product that is read spectrophotometrically. MIT was dissolved in phosphate buffered saline with a pH of 7.4 to obtain an MIT concentration of 5 mg/ml; the resulting mixture was filtered through a 0.22-micron filter to sterilize and remove a small amount of insoluble residue. For each type of tumor cell, 10,000 to 15,000 cells were seeded in a 96-well culture plate and incubated with the individual betulinic acid derivatives in a CO2 incubator for a total of 72 hours. Control cells not treated with the betulinic acid derivatives were similarly incubated. The assay was terminated by adding 100 μg (20 μl) of MIT to each well then incubating for additional one hour, and finally adding 50 μl of 10% SDS-0.01N HCl to each well to lyse the cells and dissolve formazan. After incubating for one hour, the plate was read spectrophotometrically at 540 nm and the percentage of cytotoxicity calculated using the following formula: Cytotoxicity percentage=100×[1−(X/R1)], where X=(absorbance of treated sample at 540 nm)−(absorbance of blank at 540 nm) R1=absorbance of control sample at 540 nm. The IC50 Values of the cytotoxicity defined as the concentration at which 50% of the cells are killed in vitro was calculated for each cell line treated with each of the betulinic acid derivatives.

SW620 = assay: three day MTT cytotoxicity assay, SW620; type: cell-based, human; details: for IC50 for cell lines SW620: SW620, 72 hours
Experimental: as §1

HBL100 = assay: three day MTT cytotoxicity assay, HBL100; type: cell-based, human; details: for Specific Index (SI) for cell lines HBL100: ratio of IC50 of NIH 3T3 cells to HBL100
Experimental: as §2

Miapaca = assay: three day MTT cytotoxicity assay, Miapaca; type: cell-based, human; details: for Specific Index (SI) for cell lines Miapaca: ratio of IC50 of NIH 3T3 cells to Miapaca
Experimental: as §2

A549 = assay: three day MTT cytotoxicity assay, A549; type: cell-based, human; details: for Specific Index (SI) for cell lines A549: ratio of IC50 of NIH 3T3 cells to A549
Experimental: as §2

K562 = assay: three day MTT cytotoxicity assay, K562; type: cell-based, human; details: for Specific Index (SI) for cell lines K562: ratio of IC50 of NIH 3T3 cells to K562
Experimental: as §2

Compound	IC50 for cell lines NIH3T3 (NIH 3T3 cells) [µg/mL]	IC50 for cell lines PA1 (PA1) [µg/mL]	IC50 for cell lines DU145 (DU145) [µg/mL]	IC50 for cell lines SW620 (SW620) [µg/mL]	IC50 for cell lines HBL100 (HBL100; HBL100, 72 hours, MTT) [µg/mL]	IC50 for cell lines Miapaca (Miapaca; Miapaca, 72 hours, MTT) [µg/mL]	IC50 for cell lines A549 (A549; A549, 72 hours, MTT) [µg/mL]	IC50 for cell lines K562 (K562; K562, 72 hours, MTT) [µg/mL]	Specific Index (SI) for cell lines HBL100 (HBL100)	Specific Index (SI) for cell lines Miapaca (Miapaca)	Specific Index (SI) for cell lines A549 (A549)	Specific Index (SI) for cell lines K562 (K562)	IC50 (NIH 3T3 cells; Mus musculus, read-out: IC50 for cell lines NIH3T3) [µg/mL]	IC50 (PA1; Homo sapiens, PA-1, PA1, 72 hours, read-out: IC50 for cell lines PA1) [µg/mL]	IC50 (DU145; Homo sapiens, DU-145, DU145, 72 hours, read-out: IC50 for cell lines DU145) [µg/mL]	IC50 (SW620; Homo sapiens, SW-620, SW620, 72 hours, read-out: IC50 for cell lines SW620) [µg/mL]	IC50 (HBL100; Homo sapiens, HBL-100, HBL100, 72 hours, MTT, read-out: IC50 for cell lines HBL100) [µg/mL]	IC50 (Miapaca; Homo sapiens, MIA PaCa-2, Miapaca, 72 hours, MTT, read-out: IC50 for cell lines Miapaca) [µg/mL]	IC50 (A549; Homo sapiens, A549, 72 hours, MTT, read-out: IC50 for cell lines A549) [µg/mL]	IC50 (K562; Homo sapiens, K562, 72 hours, MTT, read-out: IC50 for cell lines K562) [µg/mL]
C=C(C)[C@@H]1CC[C@]2(C(=O)OCc3ccccc3)CC[C@]3(C)C(CCC4[C@@]5(C)Cc6c([nH]c7ccc(Cl)cc67)C(C)(C)C5CC[C@]43C)C12 (stereo partly drawn) [Compound 19, 28-O-Benzyl-5′-chloro-2,3-didehydroindolo[2′,′:2,3]betulinate]	>20	>20	>20	>20	>20	>20	>20	>20												
CC(C)[C@@H]1CC[C@]2(C(=O)O)CC[C@]3(C)[C@H](CC[C@@H]4[C@@]5(C)Cc6c(oc7ccccc67)C(C)(C)[C@@H]5CC[C@]43C)[C@@H]12 [Compound 12, 2,3-Didehydro-20,29-dihydrobenzfurano[2′,3′:2,3]betulinic acid]	20 ± 5.6	>20	>20		>20	8.8 ± 0.36	7.1 ± 1.6	15.28 ± 0.18	<1	2.273	2.817	1.309								
C=C(C)[C@@H]1CC[C@]2(C(=O)NCC(=O)OC)CC[C@]3(C)C(CCC4[C@@]5(C)Cc6c([nH]c7ccccc67)C(C)(C)C5CC[C@]43C)C12 (stereo partly drawn) [Compound 21, 28-N-Methylglycinate-2,3-didehydroindolo[2′,3′:2,3]betulinamide]													> 20	> 20	> 20	> 20	> 20	> 20	> 20	> 20
CC(C)[C@@H]1CC[C@]2(C(=O)O)CC[C@]3(C)C(CCC4[C@@]5(C)Cc6c([nH]c7ccccc67)C(C)(C)C5CC[C@]43C)C12 (stereo partly drawn) [Compound 2, 2,3-Didehydro-20,29-dihydroindolo[2′,3′:2,3]betulinic acid]	>20	>20	>20	>20	>20	>20	>20	15.07 ± 2.15												
C=C(C)[C@@H]1CC[C@]2(C(=O)O)CC[C@]3(C)[C@H](CC[C@@H]4[C@@]5(C)Cc6c([nH]c7ccccc67)C(C)(C)[C@@H]5CC[C@]43C)[C@@H]12 [Compound 1, 2,3-Didehydroindolo[2′,′:2,3]betulinic acid]	6.9 ± 0.76	6.01	8.86	5.151	10.3 ± 0.9	6.7 ± 0.59	7.6 ± 0.57	10.05 ± 0.61	0.669	1.029	0.907	0.68								
1′-Benzyl-2,3-didehydro-20,29-dihydro-4′-phenylpyrrolo[2′,′:2,3]betulinic acid [Compound 13]	>20	>20	>20	>20	>20	>20														
C=C(C)[C@@H]1CC[C@]2(C(=O)O)CC[C@]3(C)C(CCC4[C@@]5(C)Cc6c(n(C)c7ccccc67)C(C)(C)C5CC[C@]43C)C12 (stereo partly drawn) [Compound 3, 2,3-Didehydro-1′-methylindolo[2′,′:2,3]betulinic acid]	15.12 ± 3.04		≥ 20		19.5 ± 2.1	5.34 ± 0.96	6.9 ± 0.21	7.73 ± 0.17	0.775	2.831	2.191	1.956								
C=C(C)[C@@H]1CC[C@]2(C(=O)O)CC[C@]3(C)[C@H](CC[C@@H]4[C@@]5(C)Cc6c([nH]c7ccc(F)cc67)C(C)(C)[C@@H]5CC[C@]43C)[C@@H]12 [Compound 7, 2,3-Didehydro-5′-fluoroindolo[2′,′:2,3]betulinic acid]	>20			9.16	>20	17.4 ± 2.6	17.8 ± 1.79	10.95 ± 0.93		>1.149	>1.123	>1.826								
CC(C)[C@@H]1CC[C@]2(C(=O)O)CC[C@]3(C)[C@H](CC[C@@H]4[C@@]5(C)Cc6c([nH]c7ccc(F)cc67)C(C)(C)[C@@H]5CC[C@]43C)[C@@H]12 [Compound 8, 2,3-Didehydro-5′-fluoro-20,29-dihydroindolo[2′,′:2,3]betulinic acid]	14.59 ± 0.33			7.28	>20	8.4 ± 0.76	8.89 ± 0.84	14.01 ± 0.75	<0.730	1.737	1.641	1.041								
CC(C)[C@@H]1CC[C@]2(C(=O)O)CC[C@]3(C)C(CCC4[C@@]5(C)Cc6c(n(C)c7ccccc67)C(C)(C)C5CC[C@]43C)C12 (stereo partly drawn) [Compound 4, 2,3-Didehydro-20,29-dihydro-1′-methylindolo[2′,3′,2,3]betulinic acid]	>20	>20	>20		14.14 ± 0.8	5.4 ± 0.43	6.5 ± 3.4	10.85 ± 1.5	>1.414	>3.703	>3.076	>1.843								
